According to patent EP4778924A1 (Huons Co., Ltd., priority 2023, dated 2025):
Where a name gives a salt, the structure may show the parent alone.

Molecular target: T1, Proton Pump (H^+,K^+-ATPase) (Sus scrofa, UniProt P19156)
T1 construct: gastric vesicles were isolated from porcine stomachs; from tissue; host or cells: porcine stomach (gastric vesicles)
Assay: Inhibitory activity on proton pump (H+,K+-ATPase) activity, porcine gastric vesicles, malachite green readout
Type: biochemical
Details: for IC50: porcine gastric vesicles, pH 6.5, 8 mM KCl, 0.2 mM ATP
Experimental: Specifically, gastric vesicles were isolated from porcine stomachs, and the protein content of the vesicles was quantified using a BSA kit (Bio-Rad, 5000205). All reactions were performed in 96-well plates with a reaction volume of […] containing 100 ng of vesicles. 10 mM valinomycin and the test compound were added to reaction buffer (50 mM Tris-HEPES, 5 mM MgCl2, 8 mM KCl, pH 6.5) containing porcine gastric vesicles at various concentrations, and the mixture was incubated at 37°C for 30 minutes. DMSO or test compounds at different concentrations were added after diluting them to a final DMSO concentration of 0.1%. 0.2 mM adenosine triphosphate (ATP) was then added to the reaction buffer and incubated at 37°C for 20 minutes. The reaction was stopped with 0.2% Tween 20, followed by the addition of malachite green (Sigma Aldrich, MAK307) and incubation at room temperature for 30 minutes. The optical density (OD) value was measured at 620 nm using a microplate reader (Spectramax M5e, Molecular devices). The percent (%) inhibition was derived from the OD values of the control group and various concentrations of the test compounds. The IC50 of the test compounds was analyzed using nonlinear regression using the GraphPad Prism8 program using the % inhibition value at each concentration.

T1 sequence (P19156 2-1034 limits assumed): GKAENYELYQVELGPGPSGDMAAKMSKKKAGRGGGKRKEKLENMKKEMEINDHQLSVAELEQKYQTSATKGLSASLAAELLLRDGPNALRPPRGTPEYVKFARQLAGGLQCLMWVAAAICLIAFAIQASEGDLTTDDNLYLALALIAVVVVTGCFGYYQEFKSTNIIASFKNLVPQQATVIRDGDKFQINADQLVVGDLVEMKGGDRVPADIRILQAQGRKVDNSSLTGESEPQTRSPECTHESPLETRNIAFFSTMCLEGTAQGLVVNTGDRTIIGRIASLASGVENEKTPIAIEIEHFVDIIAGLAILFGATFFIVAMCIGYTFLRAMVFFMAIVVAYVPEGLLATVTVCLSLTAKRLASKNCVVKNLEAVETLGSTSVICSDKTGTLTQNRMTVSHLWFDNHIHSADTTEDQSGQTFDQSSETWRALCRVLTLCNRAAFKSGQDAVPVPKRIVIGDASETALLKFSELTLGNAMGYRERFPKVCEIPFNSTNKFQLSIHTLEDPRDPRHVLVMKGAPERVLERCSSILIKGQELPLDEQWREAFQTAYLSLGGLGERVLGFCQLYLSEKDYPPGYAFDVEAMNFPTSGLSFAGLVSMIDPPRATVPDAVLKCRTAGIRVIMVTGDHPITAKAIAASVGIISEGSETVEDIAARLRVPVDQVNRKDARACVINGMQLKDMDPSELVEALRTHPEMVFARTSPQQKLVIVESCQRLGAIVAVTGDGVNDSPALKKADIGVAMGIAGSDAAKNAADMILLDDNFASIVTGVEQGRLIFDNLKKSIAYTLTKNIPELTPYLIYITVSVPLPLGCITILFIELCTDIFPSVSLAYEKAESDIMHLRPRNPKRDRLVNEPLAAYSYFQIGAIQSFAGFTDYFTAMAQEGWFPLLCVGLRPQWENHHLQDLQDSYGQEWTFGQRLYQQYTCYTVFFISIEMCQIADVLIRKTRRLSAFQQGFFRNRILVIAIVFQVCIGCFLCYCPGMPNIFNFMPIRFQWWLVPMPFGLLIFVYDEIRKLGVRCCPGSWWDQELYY
T1 sequence (P18434 whole entry partner): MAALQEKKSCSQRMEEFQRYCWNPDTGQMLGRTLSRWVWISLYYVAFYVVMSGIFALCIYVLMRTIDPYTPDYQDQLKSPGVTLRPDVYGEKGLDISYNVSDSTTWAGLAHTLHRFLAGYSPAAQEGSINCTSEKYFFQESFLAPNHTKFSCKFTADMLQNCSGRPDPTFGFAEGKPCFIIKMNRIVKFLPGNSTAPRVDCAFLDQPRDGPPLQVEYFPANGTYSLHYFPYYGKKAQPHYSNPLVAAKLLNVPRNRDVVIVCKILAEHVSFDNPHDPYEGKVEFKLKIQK

| IC50 [nM] | inhibitory activity against proton pump activity (result in words) | Structure (SMILES) |
| --- | --- | --- |
| 50 to 100 | – | Cc1cccc(C)c1CNc1cc(NC(=O)N2Cc3ccccc3C2)cn2c(C)c(C)nc12 [Example 67, N-(8-((2,6-dimethylbenzyl)amino)-2,3-dimethylimidazo[1,2-a]pyridin-6-yl)isoindoline-2-carboxamide] |
| 50 to 100 | – | Cc1cccc(C)c1CNc1cc(NC(=O)N2Cc3ccncc3C2)cn2c(C)c(C)nc12 [Example 68, N-(8-((2,6-dimethylbenzyl)amino)-2,3-dimethylimidazo[1,2-a]pyridin-6-yl)-1,3-dihydro-2H-pyrrolo[3,4-c]pyridine-2-carboxamide] |
| < 50 | – | Cc1cccc(C)c1CNc1cc(NC(=O)N2CC(=O)C2)cn2c(C)c(C)nc12 [Example 69, N-(8-((2,6-dimethylbenzyl)amino)-2,3-dimethylimidazo[1,2-a]pyridin-6-yl)-3-oxoazetidine-1-carboxamide citrate] |
| 100 to 500 | – | Cc1cccc(C)c1CNc1cc(NC(=O)NCC(=O)O)cn2c(C)c(C)nc12 [Example 70, ((8-((2,6-dimethylbenzyl)amino)-2,3-dimethylimidazo[1,2-a]pyridin-6-yl)carbamoyl)glycine hydrochloride] |
| 100 to 500 | – | Cc1cccc(C)c1CNc1cc(NC(=O)NCCC(=O)O)cn2c(C)c(C)nc12 [Example 71, 3-(3-(8-((2,6-dimethylbenzyl)amino)-2,3-dimethylimidazo[1,2-a]pyridin-6-yl)ureido)propionic acid citrate] |
| 100 to 500 | – | Cc1cccc(C)c1CNc1cc(N2C(=O)NCCNC2=O)cn2c(C)c(C)nc12 [Example 72, 3-(8-((2,6-dimethylbenzyl)amino)-2,3-dimethylimidazo[1,2-a]pyridin-6-yl)-1,3,5-triazepane-2,4-dione] |
| 100 to 500 | – | CC(=O)NCCNC(=O)Nc1cc(NCc2c(C)cccc2C)c2nc(C)c(C)n2c1 [Example 73, N-(2-(3-(8-((2,6-dimethylbenzyl)amino)-2,3-dimethylimidazo[1,2-a]pyridin-6-yl)ureido)ethyl)acetamide] |
| 50 to 100 | – | Cc1cccc(C)c1CNc1cc(NC(=O)NCC2CCOC2)cn2c(C)c(C)nc12 (centres unmarked) [Example 74, 1-(8-((2,6-dimethylbenzyl)amino)-2,3-dimethylimidazo[1,2-a]pyridin-6-yl)-3-((tetrohydrofuran-3-yl)methyl)urea hydrochloride] |
| 100 to 500 | – | Cc1cccc(C)c1CNc1cc(NC(=O)[C@@]2(C)CCN2)cn2c(C)c(C)nc12 [Example 75, (R)-N-(8-((2,6-dimethylbenzyl)amino)-2,3-dimethylimidazo[1,2-a]pyridin-6-yl)-2-methylazetidine-2-carboxamide hydrochloride] |
| 50 to 100 | – | Cc1cccc(C)c1CNc1cc(NC(=O)C[C@H]2CCN2)cn2c(C)c(C)nc12 [Example 76, (R)-2-(azetidin-2-yl)-N-(8-((2,6-dimethylbenzyl)amino)-2,3-dimethylimidazo[1,2-a]pyridin-6-yl)acetamide hydrochloride] |
| < 50 | excellent inhibitory properties | Cc1cccc(C)c1CNc1cc(NC(=O)N2CC(c3ccccc3)C2)cn2c(C)c(C)nc12.O=C(O)CC(O)(CC(=O)O)C(=O)O [Example 77, N-(8-((2,6-dimethylbenzyl)amino)-2,3-dimethylimidazo[1,2-a]pyridin-6-yl)-3-phenylazetidine-1-carboxamide citrate] |
| 100 to 500 | – | Cc1cccc(C)c1CNc1cc(NC(=O)N[C@H]2CCc3ccccc32)cn2c(C)c(C)nc12 [Example 78, (S)-1-(2,3-dihydro-1H-inden-1-yl)-3-(8-((2,6-dimethylbenzyl)amino)-2,3-dimethylimidazo[1,2-a]pyridin-6-yl)urea hydrochloride] |
| 100 to 500 | – | CNC(=O)N1CC[C@H]1C(=O)Nc1cc(NCc2c(C)cccc2C)c2nc(C)c(C)n2c1 [Example 79, (S)-N2-(8-((2,6-dimethylbenzyl)amino)-2,3-dimethylimidazo[1,2-a]pyridin-6-yl)-N1-methylazetidine-1,2-dicarboxamide] |
| > 500 | – | Cc1cccc(C)c1CNc1cc(NC(=O)N[C@@H]2CCc3ccccc32)cn2c(C)c(C)nc12 [Example 80, (R)-1-(2,3-dihydro-1H-inden-1-yl)-3-(8-((2,6-dimethylbenzyl)amino)-2,3-dimethylimidazo[1,2-a]pyridin-6-yl)urea hydrochloride] |
| 50 to 100 | – | Cc1cccc(C)c1CNc1cc(NC(=O)CN2CCC2=O)cn2c(C)c(C)nc12 [Example 81, N-(8-((2,6-dimethylbenzyl)amino)-2,3-dimethylimidazo [1,2-a]pyridin-6-yl)-2-(2-oxoazetidin-1-yl)acetamide] |
| 100 to 500 | – | Cc1cccc(C)c1CNc1cc(NC(=O)N2CCC(c3ccccc3)CC2)cn2c(C)c(C)nc12 [Example 82, N-(8-((2,6-dimethylbenzyl)amino)-2,3-dimethylimidazo[1,2-a]pyridin-6-yl)-4-phenylpiperidine-1-carboxamide] |

| IC50 [nM] | inhibitory activity against proton pump activity (result in words) | Structure (SMILES) |
| --- | --- | --- |
| 100 to 500 | – | Cc1cccc(C)c1CNc1cc(NC(=O)N2CCCC(c3ccccc3)C2)cn2c(C)c(C)nc12 (centres unmarked) [Example 83, N-(8-((2,6-dimethylbenzyll)amino)-2,3-dimethylimidazo[1,2-a]pyridin-6-yl)-3-phenylpiperidine-1-carboxamide] |
| 100 to 500 | – | Cc1cccc(C)c1CNc1cc(NC(=O)N2CCC(c3ccccc3)C2)cn2c(C)c(C)nc12 (centres unmarked) [Example 84, N-(8-((2,6-dimethylbenzyl)amino)-2,3-dimethylimidazo[1,2-a]pyridin-6-yl)-3-phenylpyrrolidine-1-carboxamide] |
| 100 to 500 | – | Cc1cccc(C)c1CNc1cc(NC(=O)[C@H]2CNCCN2)cn2c(C)c(C)nc12 [Example 85, (R)-N-(8-((2,6-dimethylbenzyl)amino)-2,3-dimethylimidazo[1,2-a]pyridin-6-yl)piperazine-2-carboxamide hydrochloride] |
| < 50 | – | Cc1cccc(C)c1CNc1cc(NC(=O)N(C)CCN)cn2c(C)c(C)nc12 [Example 87, 1-(2-aminoethyl)-3-(8-((2,6-dimethylbenzyl)amino)-2,3-dimethylimidazo[1,2-a]pyridin-6-yl)-1-methylurea hydrochloride] |
| < 50 | – | Cc1cccc(C)c1CNc1cc(NC(=O)NCCO)cn2c(C)c(C)nc12 [Example 88, 1-(8-((2,6-dimethylbenzyl)amino)-2,3-dimethylimidazo[1,2-a]pyridin-6-yl)-3-(2-hydroxyethyl)urea citrate] |
| 50 to 100 | – | Cc1cccc(C)c1CNc1cc(NC(=O)[C@@H]2CCNC2)cn2c(C)c(C)nc12 [Example 89, (R)-N-(8-((2,6-dimethylbenzyl)amino)-2,3-dimethylimidazo[1,2-a]pyridin-6-yl)pyrrolidine-3-carboxamide hydrochloride] |
| 50 to 100 | – | Cc1cccc(C)c1CNc1cc(NC(=O)[C@H]2CCCCN2)cn2c(C)c(C)nc12 [Example 90, (R)-N-(8-((2,6-dimethylbenzyl)amino)-2,3-dimethylimidazo[1,2-a]pyridin-6-yl)piperidine-2-carboxamide hydrochloride] |
| 50 to 100 | – | Cc1cccc(C)c1CNc1cc(NC(=O)C[C@H]2CCCN2)cn2c(C)c(C)nc12 [Example 91, (R)-N-(8-((2,6-dimethylbenzyl)amino)-2,3-dimethylimidazo[1,2-a]pyridin-6-yl)-2-(pyrrolidin-2-yl)acetamide hydrochloride] |
| > 500 | – | Cc1cccc(C)c1CNc1cc(NC(C)C)cn2c(C)c(C)nc12 [Example 92, N^8-(2,6-dimethylbenzyl)-N^6-isopropyl-2,3-dimethylimidazo [1,2-a] pyridine-6,8-diamine] |
| < 50 | – | Cc1cccc(C)c1CNc1cc(NC(=O)C[C@@H]2CCCN2)cn2c(C)c(C)nc12 [Example 93, (S)-N-(8-((2,6-dimethylbenzyl)amino)-2,3-dimethylimidazo[1,2-a]pyridin-6-yl)-2-(pyrrolidin-2-yl)acetamide hydrochloride] |
| < 50 | – | Cc1cccc(C)c1CNc1cc(NC(=O)[C@@H]2CNCCN2)cn2c(C)c(C)nc12 [Example 94, (S)-N-(8-((2,6-dimethylbenzyl)amino)-2,3-dimethylimidazo[1,2-a]pyridin-6-yl)piperazine-2-carboxamide hydrochloride] |
| < 50 | – | Cc1cccc(C)c1CNc1cc(NC(=O)CNC(=O)CO)cn2c(C)c(C)nc12 [Example 95, N-(8-((2,6-dimethylbenzyl)amino)-2,3-dimethylimidazo[1,2-a]pyridin-6-yl)-2-(2-hydroxyacetamido)acetamide] |
| 100 to 500 | – | Cc1cccc(C)c1CNc1cc(NC(=O)[C@H](C)O)cn2c(C)c(C)nc12 [Example 96, (S)-N-(8-((2,6-dimethylbenzyl)amino)-2,3-dimethylimidazo[1,2-a]pyridin-6-yl)-2-hydroxypropanamide citrate] |
| 50 to 100 | – | Cc1cccc(C)c1CNc1cc(NC(=O)[C@@H](C)O)cn2c(C)c(C)nc12 [Example 97, (R)-N-(8-((2,6-dimethylbenzyl)amino)-2,3-dimethylimidazo[1,2-a]pyridin-6-yl)-2-hydroxypropanamide citrate] |
| 50 to 100 | – | CNCC(=O)Nc1cc(NCc2c(C)cccc2C)c2nc(C)c(C)n2c1 [Example 98, N-(8-((2,6-dimethylbenzyl)amino)-2,3-dimethylimidazo[1,2-a]pyridin-6-yl)-2-(methylamino)acetamide hydrochloride] |
